Patent US7737155B2, “Nitrogen-containing heterocyclic compounds and methods of use thereof” (Schering Corporation, priority 2005, dated 2010)
Where two headings read alike, the source gives them in different places.

Target: recombinant human nicotinic acid receptor (NAR) (Homo sapiens, UniProt Q8TDS4)
Test: Nicotinic Acid Receptor Assay: inhibition of forskolin-stimulated cAMP accumulation in CHO cells (MesoScale Discovery cAMP kit)
Assay type: cell-based
Conditions: CHO cells expressing recombinant human NAR
Outline: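 Compounds were diluted in PBS containing 6 μM forskolin and incubated with cells for 30 min at room temperature. cAMP was quantified by the MesoScale kit against an on-plate standard curve.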

[1] = forskolin-stimulated cAMP, read-out: NA EC50 camp
[2] = inhibition of forskolin-stimulated cAMP accumulation, read-out: NA EC50 camp
[3] = NA EC50 camp, inhibition of forskolin-stimulated cAMP accumulation
[4] = NA EC50 camp (nM), forskolin-stimulated cAMP

Sequence of recombinant human nicotinic acid receptor (NAR) (Q8TDS4 whole entry): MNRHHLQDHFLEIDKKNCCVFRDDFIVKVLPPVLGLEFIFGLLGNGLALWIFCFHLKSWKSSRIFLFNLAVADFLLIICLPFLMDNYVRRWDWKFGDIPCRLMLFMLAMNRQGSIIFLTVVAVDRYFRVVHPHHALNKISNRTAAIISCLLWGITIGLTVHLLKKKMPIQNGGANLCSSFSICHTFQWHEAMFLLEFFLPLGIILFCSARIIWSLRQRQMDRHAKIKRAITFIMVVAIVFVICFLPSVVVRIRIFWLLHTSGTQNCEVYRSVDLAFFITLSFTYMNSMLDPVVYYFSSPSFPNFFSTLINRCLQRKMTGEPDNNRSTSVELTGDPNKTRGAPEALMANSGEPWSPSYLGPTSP

SMILES | EC50 [1] [nM] | EC50 [2] [nM] | also measured
CCc1cc(=O)oc2nc(OC[C@H](O)c3ccccc3)[nH]c(=O)c12 [Compound 633] | 100 to 1000 |  | 
Cc1cc(=O)oc2nc(OCc3csc4ccccc34)[nH]c(=O)c12 [Compound 690] | > 1000 |  | 
CCc1cc(=O)oc2nc(OCc3c(-c4c(Cl)cccc4Cl)noc3C)[nH]c(=O)c12 [Compound 647] | 100 to 1000 |  | 
CCc1cc(=O)oc2nc(OCCS(=O)(=O)c3ccc(Cl)cc3)[nH]c(=O)c12 [Compound 591] | 0.001 to 100 |  | 
COc1ccc(-c2ccc(Cc3cc(=O)oc4[nH]c(=O)[nH]c(=O)c34)cc2)cc1 [Compound 207] | > 1000 |  | 
CCc1cc(=O)oc2nc(OCc3ccc(-c4cccc(C(F)(F)F)c4)cc3F)[nH]c(=O)c12 [Compound 573] | 100 to 1000 |  | 
Cc1cccc(COc2nc3oc(=O)cc(Cc4ccccc4)c3c(=O)[nH]2)n1 [Compound 609] | > 1000 |  | 
CCc1cc(=O)oc2nc(OCCOc3c(OC)cccc3OC)[nH]c(=O)c12 [Compound 622] | 100 to 1000 |  | 
CCCCC#CCOc1nc2oc(=O)cc(CCCC3CC3)c2c(=O)[nH]1 [Compound 719] |  | 152 | 
O=c1cc(CCC2CC2)c2c(=O)[nH]c(C(F)F)nc2o1 [Compound 752] |  |  | EC50 [3]: 248 nM
CCc1cc(=O)oc2nc(OCC#CCCO)[nH]c(=O)c12 [Compound 658] |  |  | EC50 [4]: 100 to 1000 nM
CCc1cc(=O)oc2nc(OCC#CC3CC3)[nH]c(=O)c12 [Compound 589] |  |  | EC50 [4]: 0.001 to 100 nM
CCCCc1cc(=O)oc2nc(OCC#CC3CC3)[nH]c(=O)c12 [Compound 735] |  |  | EC50 [3]: 94 nM
O=c1cc(CCCC2CC2)c2c(=O)[nH]c(CF)nc2o1 [Compound 741] |  | 123 | 
N#Cc1c(CCCC2CC2)c2c(=O)[nH]c(=O)[nH]c2oc1=O [Compound 759] |  | 2330 | 
CCCCc1cc(=O)oc2nc(OCC#CC(C)O)[nH]c(=O)c12 (stereo not shown) [Compound 737] |  | 59.5 | 
CCc1cc(=O)oc2nc(OCc3ccccc3-c3cccc(COC)c3)[nH]c(=O)c12 [Compound 549] | 100 to 1000 |  | 
CCc1cc(=O)oc2nc(OCc3cccc(-c4ccccc4F)c3)[nH]c(=O)c12 [Compound 559] | 100 to 1000 |  | 
CC#CCOc1nc2oc(=O)cc(CCCC3CC3)c2c(=O)[nH]1 [Compound 717] |  | 259 | 
CCc1cc(=O)oc2nc(OCc3ccccc3-c3cccc(CO)c3)[nH]c(=O)c12 [Compound 634] | 100 to 1000 |  | 
CCCCc1cc(=O)oc2nc(OCc3cc[n+]([O-])cc3)[nH]c(=O)c12 [Compound 681] | > 1000 |  | 
CCc1cc(=O)oc2nc(OCc3c(-c4ccccc4)noc3C)[nH]c(=O)c12 [Compound 526] | 100 to 1000 |  | 
CCc1cc(=O)oc2nc(OCc3cc4cc(C)ccc4s3)[nH]c(=O)c12 [Compound 654] | 0.001 to 100 |  | 
O=c1[nH]c(=O)c2c(CCC3CCC3)c(-c3ccccc3)c(=O)oc2[nH]1 [Compound 699] | > 1000 |  | 
CCc1cc(=O)oc2nc(OCc3ccc(Cl)c(C(F)(F)F)c3)[nH]c(=O)c12 [Compound 521] | 100 to 1000 |  | 
N#Cc1ccc(-c2c(CCC3CCC3)c3c(=O)[nH]c(=O)[nH]c3oc2=O)cc1 [Compound 702] | > 1000 |  | 
CC1(CCCc2cc(=O)oc3nc(C(F)F)[nH]c(=O)c23)CC1 [Compound 811] |  |  | EC50 [3]: 22 nM
Cc1ccccc1-c1cc(CCCc2cc(=O)oc3[nH]c(=O)[nH]c(=O)c23)on1 [Compound 243] | 100 to 1000 |  | 

More lines, main results first:

EC50 [1] [nM] | EC50 [2] [nM] | SMILES | also measured
 | 47 | O=c1[nH]c(=O)c2c(CC3CCCC3)cc(=O)oc2[nH]1 [Compound 104] | 
 | 3450 | CCCCc1cc(=O)oc2[nH]c(=O)n(CF)c(=O)c12 [Compound 803] | 
100 to 1000 |  | CCc1cc(=O)oc2nc(OC[C@H](C)OC)[nH]c(=O)c12 [Compound 632] | 
100 to 1000 |  | CCc1cc(=O)oc2nc(OCCCS(C)(=O)=O)[nH]c(=O)c12 [Compound 650] | 
0.001 to 100 |  | O=c1cc(CCCC2CC2)c2c(=O)n(C3CCC3)c(=O)[nH]c2o1 [Compound 224] | 
 | 74.3 | O=c1[nH]c(=O)c2c(CC3CCCCC3)cc(=O)oc2[nH]1 [Compound 103] | 
0.001 to 100 | 49.9 | CC(C)(C)CCCc1cc(=O)oc2[nH]c(=O)[nH]c(=O)c12 [Compound 262] | 
> 1000 |  | CCCCc1cc(=O)oc2c1c(=O)[nH]c(=O)n2CC1CC1 [Compound 257] | 
100 to 1000 |  | O=c1[nH]c(=O)c2c(CCCOC3CCC3)cc(=O)oc2[nH]1 [Compound 290] | 
 | 384 | CCc1cc(=O)oc2[nH]c(=O)n(OC)c(=O)c12 [Compound 768] | 
100 to 1000 |  | CCc1cc(=O)oc2nc(OCC(N)=O)[nH]c(=O)c12 [Compound 582] | 
100 to 1000 |  | CCc1cc(=O)oc2nc(OCC(=O)N(CC)CC)[nH]c(=O)c12 [Compound 621] | 
100 to 1000 |  | CCc1cc(=O)oc2nc(OCc3cc(Br)no3)[nH]c(=O)c12 [Compound 649] | 
> 1000 |  | O=c1[nH]c(=O)c2c(CC3C[C@@H]4CC[C@H]3C4)cc(=O)oc2[nH]1 (stereo partly shown) [Compound 201] | 
> 1000 |  | CC/C=C\CCc1cc(=O)oc2[nH]c(=O)n(CC3CC3)c(=O)c12 [Compound 254] | 
100 to 1000 |  | CC(C)(C)CCCc1cc(=O)oc2[nH]c(=O)n(C3CCC3)c(=O)c12 [Compound 284] | 
 | 291 | CCCCc1cc(=O)oc2[nH]c(=O)n(C(F)F)c(=O)c12 [Compound 816] | 
100 to 1000 |  | CCc1cc(=O)oc2nc(OCc3cc(C)nn3C)[nH]c(=O)c12 [Compound 529] | 
0.001 to 100 |  | CCc1cc(=O)oc2nc(OCc3ccncc3)[nH]c(=O)c12 [Compound 523] | 

EC50 [1] [nM] | EC50 [2] [nM] | SMILES | also measured
 | 19 | COn1c(=O)[nH]c2oc(=O)cc(CCC3CCC3)c2c1=O [Compound 769] | 
 | 407 | CCCCc1cc(=O)oc2[nH]c(=O)nc(OCC(F)F)c12 [Compound 828] | 
 | 690 | CCCCc1cc(=O)oc2[nH]c(=O)nc(OCCF)c12 [Compound 827] | 
 | 49.9 | CCc1cc(=O)oc2nc(OCC#CC(C)O)[nH]c(=O)c12 (stereo not shown) [Compound 729] | 
> 1000 |  | N#Cc1cccc(Cc2cc(=O)oc3[nH]c(=O)[nH]c(=O)c23)c1 [Compound 231] | 
100 to 1000 |  | Cn1c(=O)[nH]c(=O)c2c(CCC3CC3)cc(=O)oc21 [Compound 275] | 
0.001 to 100 | 56.7 | O=c1[nH]c(=O)c2c(CCCC3CCCC3)cc(=O)oc2[nH]1 [Compound 297] | 
 | 68 | CCn1c(=O)[nH]c2oc(=O)cc(CCC3CCCC3)c2c1=O [Compound 781] | 
> 1000 |  | CCC(CC)Cc1cc(=O)oc2[nH]c(=O)[nH]c(=O)c12 [Compound 267] | 
100 to 1000 |  | CCc1cc(=O)oc2nc(OCCN3CCCC3=O)[nH]c(=O)c12 [Compound 592] | 
100 to 1000 |  | CCc1cc(=O)oc2nc(OCCOC(C)C)[nH]c(=O)c12 [Compound 595] | 
100 to 1000 |  | CCc1cc(=O)oc2nc(OCc3ccc(Cl)cc3OC)[nH]c(=O)c12 [Compound 515] | 
100 to 1000 |  | CCC(CC)CCc1cc(=O)oc2[nH]c(=O)[nH]c(=O)c12 [Compound 269] | 
 | 1450 | CCCc1cc(=O)oc2[nH]c(=O)n(CF)c(=O)c12 [Compound 817] | 
> 1000 |  | CCc1cc(=O)oc2nc(OCC3CCCCN3C)[nH]c(=O)c12 (stereo not shown) [Compound 594] | 
 | 296 | CCc1cc(=O)oc2nc(OCC#CC(C)OC)[nH]c(=O)c12 (stereo not shown) [Compound 723] | 
100 to 1000 |  | CCc1cc(=O)oc2nc(OCC#CC(C)OC)[nH]c(=O)c12 (stereo not shown) [Compound 672] | 
 | 4.8 | O=c1[nH]c(=O)c2c(Cc3ccsc3)cc(=O)oc2[nH]1 [Compound 135] | 
